Laboratory results from PMC4554834 (Bioorganic & medicinal chemistry, 2015).

Experiments:
OX2 receptor = conditions: cited from earlier work
[1] = cited from earlier work
OX1 = conditions: cited from earlier work
human OX1 receptors = target: T1, human OX1 receptors (Homo sapiens, UniProt O43613); assay: Calcium mobilization Ke; assay type: cell-based; conditions: for OX1 potency (in words): qualitative statement
T1 sequence (O43613 1-425): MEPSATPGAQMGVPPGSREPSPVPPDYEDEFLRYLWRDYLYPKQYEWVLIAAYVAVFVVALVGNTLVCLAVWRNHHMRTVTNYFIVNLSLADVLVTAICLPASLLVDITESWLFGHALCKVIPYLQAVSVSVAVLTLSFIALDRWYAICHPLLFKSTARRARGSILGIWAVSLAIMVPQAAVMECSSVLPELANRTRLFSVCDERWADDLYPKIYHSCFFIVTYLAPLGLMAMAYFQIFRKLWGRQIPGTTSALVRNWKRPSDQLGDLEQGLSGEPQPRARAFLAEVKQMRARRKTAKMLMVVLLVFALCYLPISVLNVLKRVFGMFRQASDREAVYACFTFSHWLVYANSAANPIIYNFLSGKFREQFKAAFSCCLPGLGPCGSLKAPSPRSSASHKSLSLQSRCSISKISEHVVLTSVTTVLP

human OX2 receptors = target: T2, human OX2 receptors (Homo sapiens, UniProt O43614); assay: Calcium mobilization Ke; assay type: cell-based
T2 sequence (O43614 1-444): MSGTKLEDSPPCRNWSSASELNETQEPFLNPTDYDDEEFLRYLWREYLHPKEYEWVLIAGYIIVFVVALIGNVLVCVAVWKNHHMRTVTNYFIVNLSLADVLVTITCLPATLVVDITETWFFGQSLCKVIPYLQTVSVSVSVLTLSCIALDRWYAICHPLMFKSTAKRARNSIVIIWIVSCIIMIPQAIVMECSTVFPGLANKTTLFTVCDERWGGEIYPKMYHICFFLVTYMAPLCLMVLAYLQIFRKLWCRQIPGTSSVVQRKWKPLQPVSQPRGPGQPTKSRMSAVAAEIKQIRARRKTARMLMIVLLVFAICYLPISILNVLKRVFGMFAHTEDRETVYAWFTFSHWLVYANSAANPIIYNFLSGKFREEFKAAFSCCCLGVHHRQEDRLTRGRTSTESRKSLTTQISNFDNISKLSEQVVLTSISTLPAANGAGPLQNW

[2] = pre-incubation increased to 45 min and 60 min
[3] = simultaneous addition of antagonist and Orexin A

Kb (human OX1 receptors) | Kb (human OX2 receptors) | OX1 potency (in words) (human OX1 receptors) | Compound | also measured
 |  |  | CNC(=O)[C@@H](c1ccccc1)N1CCc2cc(OC)c(OC)cc2[C@@H]1CCc1ccc(C(F)(F)F)cc1 [Almorexant, almorexant] | mode of antagonism at the OX2 receptor (OX2 receptor): insurmountable antagonist
 |  |  | COc1cc2c(cc1OC)CN(C(=O)[C@@H](NCc1ccncc1)C(C)(C)C)CC2 [TCS-OX2-29] | effect on cocaine self-administration [1]: no effect; effect on cue-induced reinstatement ([1]; cocaine): no effect
 |  |  | Cc1nc2ccc(NC(=O)Nc3ccnc4cccnc34)cc2o1 [SB-334867] | selectivity for OX1 over OX2 (OX1): ~ 50 fold
512 ± 36 nM | 1680 ± 330 nM |  | COc1ccc2c(c1)C(Cc1ccc(OC)c(OC)c1)N(CC(=O)NCc1ccccc1)CC2 (centres unmarked) [10a, N-Benzyl-2-{1-[(3,4-dimethoxyphenyl)methyl]-7-methoxy-1,2,3,4-tetrahydroisoquinolin-2-yl}acetamide] | 
> 10000 nM | 1330 ± 260 nM |  | COc1ccc(CC2c3ccc(OS(C)(=O)=O)cc3CCN2CC(=O)NCc2ccccc2)cc1OC (centres unmarked) [18a, 2-[(Benzylcarbamoyl)methyl]-1-[(3,4-dimethoxyphenyl)methyl]-1,2,3,4-tetrahydroisoquinolin-6-yl methanesulfonate] | 
> 10000 nM | 1290 ± 130 nM |  | CCC(=O)Oc1ccc2c(c1)CCN(CC(=O)NCc1ccccc1)C2Cc1ccc(OC)c(OC)c1 (centres unmarked) [compound 19, 2-[(Benzylcarbamoyl)methyl]-1-[(3,4-dimethoxyphenyl)methyl]-1,2,3,4-tetrahydroisoquinolin-6-yl propanoate] | 
591 ± 67 nM | > 10000 nM | some activity | CCOC(=O)CCCNc1ccc2c(c1)CCN(CC(=O)NCc1ccccc1)C2Cc1ccc(OC)c(OC)c1 (centres unmarked) [26d, Ethyl 4-({2-[(benzylcarbamoyl)methyl]-1-[(3,4-dimethoxyphenyl)methyl]-1,2,3,4-tetrahydroisoquinolin-6-yl}amino)butanoate] | 
> 10000 nM |  |  | CCCOc1ccc2c(c1)CCN(CC(=O)NCc1ccccc1)C2Cc1ccc(OC)c(OC)c1 (centres unmarked) [17a, N-Benzyl-2-{1-[(3,4-dimethoxyphenyl)methyl]-6-propoxy-1,2,3,4-tetrahydroisoquinolin-2-yl}acetamide] | 
> 10000 nM |  |  | COc1ccc(CC2c3ccc(N(C)Cc4ccccc4)cc3CCN2CC(=O)NCc2ccccc2)cc1OC (centres unmarked) [25i, N-Benzyl-2-{6-[benzyl(methyl)amino]-1-[(3,4-dimethoxyphenyl)methyl]-1,2,3,4-tetrahydroisoquinolin-2-yl}acetamide] | 
> 10000 nM |  |  | CCCCCCNc1ccc2c(c1)CCN(CC(=O)NCc1ccccc1)C2Cc1ccc(OC)c(OC)c1 (centres unmarked) [25t, N-Benzyl-2-{1-[(3,4-dimethoxyphenyl)methyl]-6-(hexylamino)-1,2,3,4-tetrahydroisoquinolin-2-yl}acetamide] | 
23.7 ± 7.9 nM | 2550 ± 260 nM |  | CCCOc1ccc2c(c1)C(Cc1ccc(OC)c(OC)c1)N(CC(=O)NCc1ccccc1)CC2 (centres unmarked) [10c, N-Benzyl-2-{1-[(3,4-dimethoxyphenyl)methyl]-7-propoxy-1,2,3,4-tetrahydroisoquinolin-2-yl}acetamide] | mode of antagonism at OX1 (human OX1 receptors; 15 minute pre-incubation): competitive antagonism; selectivity for OX1 over OX2 (human OX1 receptors; OX2 versus OX1 Ke): > 100 fold
> 10000 nM |  | no significant potency | COc1ccc(CC2c3ccc(NS(C)(=O)=O)cc3CCN2CC(=O)NCc2ccccc2)cc1OC (centres unmarked) [compound 27, N-Benzyl-2-{1-[(3,4-dimethoxyphenyl)methyl]-6-methanesulfonamido-1,2,3,4-tetrahydroisoquinolin-2-yl}acetamide] | 
2400 ± 320 nM | > 10000 nM | slight potency | COC(=O)Nc1ccc2c(c1)CCN(CC(=O)NCc1ccccc1)C2Cc1ccc(OC)c(OC)c1 (centres unmarked) [23a, Methyl N-{2-[(benzylcarbamoyl)methyl]-1-[(3,4-dimethoxyphenyl)methyl]-1,2,3,4-tetrahydroisoquinolin-6-yl}carbamate] | 
809 ± 200 nM |  | some activity | CCOC(=O)CCNc1ccc2c(c1)CCN(CC(=O)NCc1ccccc1)C2Cc1ccc(OC)c(OC)c1 (centres unmarked) [26c, Ethyl 3-({2-[(benzylcarbamoyl)methyl]-1-[(3,4-dimethoxyphenyl)methyl]-1,2,3,4-tetrahydroisoquinolin-6-yl}amino)propanoate] | 
> 10000 nM |  | no significant potency | COc1ccc(CC2c3ccc(NC(=O)Nc4ccccc4)cc3CCN2CC(=O)NCc2ccccc2)cc1OC (centres unmarked) [28d, N-Benzyl-2-{1-[(3,4-dimethoxyphenyl)methyl]-6-[(phenylcarbamoyl)amino]-1,2,3,4-tetrahydroisoquinolin-2-yl}acetamide] | 
1010 ± 200 nM |  |  | COc1ccc(CC2c3ccc(NCCCC(=O)OC(C)(C)C)cc3CCN2CC(=O)NCc2ccccc2)cc1OC (centres unmarked) [26e, Tert-butyl 4-({2-[(benzylcarbamoyl)methyl]-1-[(3,4-dimethoxyphenyl)methyl]-1,2,3,4-tetrahydroisoquinolin-6-yl}amino)butanoate] | mode of antagonism at OX1 (human OX1 receptors; 15 minute pre-incubation): insurmountable antagonism; mode of antagonism at OX1 (human OX1 receptors; [2]): competitive antagonists; mode of antagonism at OX1 (human OX1 receptors; [3]): competitive antagonists
> 10000 nM |  |  | COc1ccc(CC2c3ccc(NC(C)C)cc3CCN2CC(=O)NCc2ccccc2)cc1OC (centres unmarked) [25e, N-Benzyl-2-{1-[(3,4-dimethoxyphenyl)methyl]-6-[(propan-2-yl)amino]-1,2,3,4-tetrahydroisoquinolin-2-yl}acetamide] | 
1370 ± 100 nM |  |  | COc1ccc(CC2c3ccc(N(C)C)cc3CCN2CC(=O)NCc2ccccc2)cc1OC (centres unmarked) [25a, N-Benzyl-2-{1-[(3,4-dimethoxyphenyl)methyl]-6-(dimethylamino)-1,2,3,4-tetrahydroisoquinolin-2-yl}acetamide] | 
2180 ± 360 nM |  |  | COc1ccc(CCNc2ccc3c(c2)CCN(CC(=O)NCc2ccccc2)C3Cc2ccc(OC)c(OC)c2)cc1OC (centres unmarked) [25j, N-Benzyl-2-(6-{[2-(3,4-dimethoxyphenyl)ethyl]amino}-1-[(3,4-dimethoxyphenyl)methyl]-1,2,3,4-tetrahydroisoquinolin-2-yl)acetamide] | mode of antagonism at OX1 (human OX1 receptors; 15 minute pre-incubation): insurmountable antagonism; mode of antagonism at OX1 (human OX1 receptors; [2]): competitive antagonists; mode of antagonism at OX1 (human OX1 receptors; [3]): competitive antagonists
> 10000 nM | > 10000 nM | not active | CCOC(=O)Nc1ccc2c(c1)CCN(CC(=O)NCc1ccccc1)C2Cc1ccc(OC)c(OC)c1 (centres unmarked) [23b, Ethyl N-{2-[(benzylcarbamoyl)methyl]-1-[(3,4-dimethoxyphenyl)methyl]-1,2,3,4-tetrahydroisoquinolin-6-yl}carbamate] | 
> 10000 nM | > 10000 nM |  | CCCCCC(=O)Nc1ccc2c(c1)CCN(CC(=O)NCc1ccccc1)C2Cc1ccc(OC)c(OC)c1 (centres unmarked) [28b, N-{2-[(Benzylcarbamoyl)methyl]-1-[(3,4-dimethoxyphenyl)methyl]-1,2,3,4-tetrahydroisoquinolin-6-yl}hexanamide] | 
> 10000 nM |  | loss of detectable potency | COc1ccc(CC2c3ccc(NCCN4CCCCC4)cc3CCN2CC(=O)NCc2ccccc2)cc1OC (centres unmarked) [25o, N-Benzyl-2-{1-[(3,4-dimethoxyphenyl)methyl]-6-{[2-(piperidin-1-yl)ethyl]amino}-1,2,3,4-tetrahydroisoquinolin-2-yl}acetamide] | 

Compound | Kb (human OX1 receptors) | Kb (human OX2 receptors) | OX1 potency (in words) (human OX1 receptors) | also measured
CCCCOc1ccc2c(c1)C(Cc1ccc(OC)c(OC)c1)N(CC(=O)NCc1ccccc1)CC2 (centres unmarked) [10e, N-Benzyl-2-{7-butoxy-1-[(3,4-dimethoxyphenyl)methyl]-1,2,3,4-tetrahydroisoquinolin-2-yl}acetamide] | 230 ± 70 nM |  |  | 
